The values that follow come from article PMC6694155, “PTPσ inhibitors promote hematopoietic stem cell regeneration” (Nature Communications, 2019).

Where “and” joins values, the source holds several entries; their conditions need not be identical. Identical values can stand only once.

The subject of assay [1] is CDC42-GTP in BM lin− cells. The assay is described as follows: G-LISA activation assay: CDC42-GTP. Format: cell-based, mouse. The settings on record: for CDC42-GTP level (G-LISA): Supplementary Figure 7b (right panel). Here is the method:
The RAC1-GTP, RHOA-GTP, and CDC42-GTP activation levels in BM lin^− cells were measured using a colorimetric-based RAC1-, RHOA-, and CDC42 G-LISA Activation Assay Kit (Cytoskeleton, Inc.). BM cells from femurs and tibias were isolated from 12-week-old Ptprs^+/+ and Ptprs^−/− mice. Cells were then depleted of lineage-committed cells with Direct Lineage Cell Depletion Kit (Miltenyi Biotec, #130-110-470; 1:5). The BM lin^− cell fraction was then serum starved in Iscove’s modified Dulbecco’s medium (IMDM) and treated with either vehicle (equal amount of DMSO) or 1 μg/mL DJ001 for 10 min at 37 °C. After treatment, cells were washed with ice-cold PBS and then placed in lysis buffer supplemented with protease inhibitor. Lysate concentrations were measured by Pierce^TM BCA Protein Assay Kit (ThermoFisher Scientific). G-LISA was performed according to the manufacturer’s instructions. Briefly, 12.5 μg of lysates was added to a GTP-binding protein pre-coated plate and active RAC1-GTP, RHOA-GTP, or CDC42-GTP levels were measured at 490 nm using a PowerWave XS2 microplate reader (BioTek).

Assay [2] relates to PPA (Protein Phosphatase 1). The assay is described as follows: PhosphataseProfiler screen: PPA. Format: biochemical. The settings on record: replicates, in % (unit assumed). Here is the method: (§1) Compound DJ001 was evaluated in a PhosphataseProfiler™ screen at 10 μM and 1 μM (2.7 μg/mL and 0.27 μg/mL) concentrations at Eurofins Pharma Discovery Services UK (Study number UK022-0004033) against a panel of 21 Phosphatases. In each experiment, the respective reference antagonist/agonist was tested directly with DJ001 and the data were compared with historical values determined at Eurofins. DJ001 compound inhibition was calculated as percentage inhibition of the enzymatic activity compared with control.

In another assay the test system is panel of 21 Phosphatases. The assay is described as follows: PhosphataseProfiler screen, whole panel. Format: biochemical. The settings on record: DJ001 at 10 μM and 1 μM. Here is the method: as §1

For `O=C(/C=C\Nc1cccc([N+](=O)[O-])c1)c1ccccc1` [DJ001, (Z)-3-((3-nitrophenyl)amino)-1-phenylprop-2-en-1-one], the “activation of CDC42” value in assay [1] (BM lin− cells, 1 μg/mL DJ001, 10 min) is “did not alter the activation”. Further, the “CDC42-GTP level (G-LISA)” value in assay [1] (Ptprs+/+ cells) is 0.2383 and 0.2517 and 0.2371; in assay [1] (Ptprs-/- cells), 0.1634 and 0.1869 and 0.1735. For the same compound, the “Supplementary Figure 1: PPA activity” value in assay [2] (2.7 μg/mL DJ001) was 101 and 93 and 96; in assay [2] (0.27 g/mL DJ001) it was 96 and 90 and 101. In the assay with panel of 21 Phosphatases, the “inhibitory activity against 20 other phosphatases” value is “no inhibitory activity”.
